From US5358945A, “Pyrimidine compound and pharmaceutically acceptable salts thereof” (Mitsui Petrochemical Industries, Ltd., priority 1990, dated 1994)

Assays:
Mouse neuro 2a cells = test: Neurite outgrowth of mouse neuroblastoma neuro 2a cells (Table 7); assay type: cell-based; conditions: mean ± S.D.
Protocol: The biological activities in vitro of the compounds of formula (I) on cells of the nervous system were tested. The cells tested were mouse neuroblastoma cell line neuro-2a (Dainippon Pharmaceutical Co., Ltd.) which have been established as the cells of the nervous system. The above nerve cells were grown in an incubator at 37° C. in the presence of 5% carbon dioxide gas exponentially, and the cultured for a certain period of time together with the compounds of formula (I).
The effects of the compounds of this invention on neuroblastoma cells were examined by the following method.
Mouse neuro 2a cells in the logarithmic growth period in the Dulbecco's modified Eagle's medium [DMEM, containing 100 units/ml of penicillin G sodium and 100 micrograms/ml of streptomycin sulfate] containing 10% of FCS were seeded in a 48-well plate so that the number of cells was 1,000 cells/well, and cultured for one day in 0.25 ml of the culture fluid in each well in an incubator containing 5% of carbon dioxide gas in air at 37° C. The medium was replaced by a medium containing each antibiotics and FCS and the cells were further cultured for 24 hours. Then, a 4% aqueous glutaraldehyde solution in the same amount as a medium (0.25 ml) was added, and the culture was left to stand at room temperature for 2 hours to fix the cells. After washing with water, a 0.05% aqueous solution of methylene blue was added to stain the cells. Under a microscope, the number of cells containing outgrown neurites (cells having at least one neurite with a length of at least two times as large as the long diameter of the cell) was counted visually, and the proportion of these cells in the entire cells was calculated. The well was observed over 5 or more visual fields (at least 2% of the entire surface area of the well) continuous to the left and right from a mark put at the center of the well, and more than 200 cells was counted. One drug compound was used in 6 different concentrations at most, and three runs were conducted for each concentration.

[1] = system: Mouse neuroblastoma cells NS-20Y; test: Neurite appearance in mouse neuroblastoma NS-20Y cells (Table 8); assay type: cell-based;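 also: cells grown in polyornithine-coated dishes, with timing counted from the start of culture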
mouse = test: Acute toxicity in mouse (Table 10); assay type: in vivo
Protocol: The acute toxicity of the compounds of the invention was examined by the following method.
Male ddy-strain 5-week old mice, 4-6 per group, were used as experimental animals. Each of the compounds was dissolved or suspended in saline and administered perorally (p.o.) or intraperitoneally (i.p.), and the toxicity of the compound was assessed 24 hours after the administration.

[2] = i.p., 24 hours after administration

Row | Compound | Ratio of the number of cells having neurites with a length of at least two times as large as the diameter of cells to the total number of cells (Mouse neuro 2a cells; 0.1 mM) [%] | Ratio of the number of cells having neurites with a length of at least two times as large as the diameter of cells to the total number of cells (Mouse neuro 2a cells; 0.3 mM) [%] | The number of cells in which neurites appeared/Total number of cells ([1]; 24 hour, 0.2 mM) | The number of cells in which neurites appeared/Total number of cells ([1]; 24 hour, 0.5 mM) | The number of cells in which neurites appeared/Total number of cells ([1]; 48 hour, 0.2 mM) | The number of cells in which neurites appeared/Total number of cells ([1]; 48 hour, 0.5 mM) | Estimated LD50 (mouse; [2]) [mg/kg] | Ratio of the number of cells having neurites with a length of at least two times as large as the diameter of cells to the total number of cells (Mouse neuro 2a cells; 0.03 mM) [%] | Ratio of the number of cells having neurites with a length of at least two times as large as the diameter of cells to the total number of cells (Mouse neuro 2a cells; 1 mM) [%] | The number of cells in which neurites appeared/Total number of cells ([1]; 48 hour, 0.1 mM) | Estimated LD50 (mouse; in vivo, ip) [mg/kg] | Ratio of the number of cells having neurites with a length of at least two times as large as the diameter of cells to the total number of cells (Mouse neuro 2a cells; 0.01 mM) [%] | The number of cells in which neurites appeared/Total number of cells ([1]; 24 hour, 0.1 mM)
1 | CN(C(=O)c1ccc(C=O)cc1)c1ccnc(N2CCCCC2)n1 [Compound 200] | 5.8 ± 1.3 | 19.7 ± 3.1 | 8/50 | 16/50 | 11/50 | 18/50 | > 1000 |  |  |  |  |  | 
2 | CN(C(=O)C12CC3CC(CC(C3)C1)C2)c1ccnc(N2CCC(c3ccccc3)CC2)n1 [Compound 160] | 11.4 ± 1.3 | 23.5 ± 2.9 | 2/50 |  |  |  |  | 5.1 ± 1.2 | 20.7 ± 2.7 | 3/50 | 500 to 1000 |  | 
3 | CN(C(=O)c1ccc(C=O)cc1)c1ccnc(N2CCC(c3ccccc3)CC2)n1 [Compound 152] |  |  |  |  |  |  |  | 16.5 ± 1.8 |  | 3/50 | > 1000 | 5.2 ± 0.4 | 2/50
4 | O=C1CCCN1c1ccnc(N2CCOCC2)n1 [Compound 392] | 5.6 ± 3.7 | 6.1 ± 4.0 | 10/50 | 15/50 | 12/50 | 21/50 | > 500 | 6.6 ± 2.2 |  |  |  |  | 
5 | CC(=O)c1ccc(C(=O)N(C)c2ccnc(N3CCC(c4ccccc4)CC3)n2)cc1 [Compound 176] |  | 13.6 ± 0.9 | 4/50 |  | 4/50 |  |  | 11.5 ± 2.1 | 14.8 ± 2.9 |  | > 1000 | 18.4 ± 2.0 | 
6 | CN(C(=O)c1ccc(C#N)cc1)c1ccnc(N2CCC(c3ccccc3)CC2)n1 [Compound 128] | 4.3 ± 1.6 | 4.8 ± 1.2 |  | 3/50 |  |  | > 1000 |  |  | 4/50 |  |  | 
7 | CCOC(=O)C1CCN(c2nccc(N3CCCC3=O)n2)CC1 [Compound 376] | 4.4 ± 0.8 | 6.0 ± 0.5 | 5/50 |  | 5/50 |  | > 500 |  |  |  |  | 3.4 ± 0.6 | 
8 | CCCCN(CCCC)c1nccc(N2CCCC2=O)n1 [Compound 440] | 4.3 ± 0.8 |  |  | 4/50 |  |  | > 500 |  |  | 4/50 |  |  | 3/50
9 | O=C1CCCN1c1ccnc(N2CCCc3ccccc32)n1 [Compound 360] |  | 6.7 ± 0.8 |  | 6/50 |  |  | > 500 | 4.8 ± 1.2 |  | 3/50 |  |  | 5/50
10 | COC(=O)c1ccc(C(=O)N(C)c2ccnc(N3CCCCC3)n2)cc1 [Compound 192] | 8.0 ± 1.3 | 13.8 ± 2.8 | 5/50 | 5/50 | 7/50 | 11/50 |  |  |  |  | 500 to 1000 |  | 
11 | O=C1CCCN1c1ccnc(N2CCc3ccccc3C2)n1 [Compound 352] |  | 4.2 ± 0.6 | 5/50 |  | 3/50 |  | > 500 |  |  |  |  | 3.4 ± 0.1 | 
12 | O=C1CCCN1c1ccnc(N2CCN(c3ccccc3)CC2)n1 [Compound 416] | 4.4 ± 0.4 | 5.1 ± 1.2 | 6/50 | 9/50 | 7/50 | 9/50 | > 500 |  |  |  |  | 5.0 ± 1.9 | 
13 | O=C1CCCN1c1ccnc(N2CCNCC2)n1 [Compound 384] | 5.1 ± 2.1 | 8.3 ± 2.7 | 10/50 | 14/50 | 10/50 | 17/50 | > 500 |  | 11.5 ± 1.3 |  |  | 4.1 ± 1.5 | 
14 | O=C1CCCN1c1ccnc(N2CCN(Cc3ccccc3)CC2)n1 [Compound 424] | 5.9 ± 1.7 | 5.2 ± 2.5 | 5/50 |  |  |  | > 500 | 4.5 ± 2.4 |  | 2/50 |  |  | 3/50
